Assay: in vitro
Settings: PAMPA, pH 7.4

Papp | Compound
900 nm/s | CCCCCCS(=O)(=O)c1cc(Cl)c(C(=O)CCN(C)C)cc1Cl
3200 nm/s | CCCN1CCN(c2ccc(C(=O)CCN(C)C)cc2)CC1
2400 nm/s | CCCCCCS(=O)(=O)c1ccc(C(=O)CCN2CCNC(=O)C2)c(Cl)c1
5600 nm/s | CCCCCCOc1ccc(C(=O)CCN(CCCC)CCCC)cc1
8300 nm/s | CCCCCCOc1cccc(C(=O)CCN(C)C)c1
> 10 nm/s | CCCCCCOc1ccc(C(=O)CCN2CCN(S(=O)(=O)CC)CC2)c(Cl)c1Cl
3800 nm/s | CCCCCCS(=O)(=O)c1ccc(C(=O)CCN2CCN(S(=O)(=O)CC)CC2)c(Cl)c1Cl
5400 nm/s | CCCCCCS(=O)(=O)c1cc(Cl)c(C(=O)CCN2CCNC(=O)C2)cc1Cl
6600 nm/s | CCCCCCOc1ccc(C(=O)CCN(C)C)c2ccccc12
1500 nm/s | CCCCCCOc1ccc(-c2ccc(C(=O)CCN(C)C)cc2)cc1
6500 nm/s | CCCCCCOc1cc(C)c(C(=O)CCN(C)C)c(C)c1
8100 nm/s | CCCCCCSc1cc(Cl)c(C(=O)CCN2CCNC(=O)C2)cc1Cl
8300 nm/s | CCCCCCOc1ccc(C(=O)CCN(C)C)cc1-c1ccccc1
7000 nm/s | CCCCCCOc1cc(Cl)c(C(=O)CCN(C)C)c(Cl)c1
5600 nm/s | CCCCCCS(=O)(=O)c1ccc(C(=O)CCN2CCOCC2)c(Cl)c1Cl
4300 nm/s | CCCCCCS(=O)(=O)c1cc(Cl)c(C(=O)CCN2CCNC(=O)C2)c(Cl)c1
5000 nm/s | CCCCCCOc1ccc(C(=O)CCN(C)C)c(C(F)(F)F)c1
4700 nm/s | CCCCCCS(=O)(=O)c1cc(Cl)c(C(=O)CCN2CCOCC2)c(Cl)c1
500 nm/s | CCCCCCSc1cc(Cl)c(C(=O)CCN2CCN(S(=O)(=O)CC)CC2)c(Cl)c1
6800 nm/s | CCCCCCS(=O)(=O)c1cc(Cl)c(C(=O)CCN2CCOCC2)cc1Cl
100 nm/s | CCCCCCSc1cc(Cl)c(C(=O)CCN2CCOCC2)c(Cl)c1
7700 nm/s | CCCCCCNC(=O)c1ccc(C(=O)CCN(C)C)cc1
2200 nm/s | CCCCCCS(=O)(=O)c1ccc(C(=O)CCN(C)C)c(Cl)c1Cl
4700 nm/s | CCCCCCS(=O)(=O)c1cc(C)c(C(=O)CCN2CCN(C(C)=O)CC2)c(C)c1
3800 nm/s | CCCCCCS(=O)(=O)c1ccc(C(=O)CCN(C)C)c(Cl)c1

Papp | Compound
100 nm/s | CCCCNC(=O)Nc1ccc(C(=O)CCN(C)C)cc1
7400 nm/s | CCCCCCSc1ccc(C(=O)CCN2CCN(S(=O)(=O)CC)CC2)c(Cl)c1
> 10 nm/s | CCCCCCOc1cc(Cl)c(C(=O)CCN2CCOCC2)c(Cl)c1
7300 nm/s | CCCCCCOc1c(C)cc(C(=O)CCN(C)C)cc1C
500 nm/s | CCCCCS(=O)(=O)Nc1ccc(C(=O)CCN(C)C)cc1
7000 nm/s | CCCCCCOc1ccc(C(=O)CCN(C)C)cc1F
7100 nm/s | CCCCCCOc1ccc2c(c1)CCC(CN(C)C)C2=O (configuration not stated)
6700 nm/s | CCCCCCS(=O)(=O)c1cc(Cl)c(C(=O)CCN2CCN(C(C)=O)CC2)cc1Cl
3300 nm/s | CCCCCCSc1cc(Cl)c(C(=O)CCN(C)C)cc1Cl
1600 nm/s | CCOCCOc1ccc(C(=O)CCN(C)C)cc1
8600 nm/s | CCCCCCOc1cc(C(C)C)c(C(=O)CCN(C)C)cc1C
3000 nm/s | CCCCCCS(=O)(=O)c1ccc(C(=O)CCN2CCN(S(=O)(=O)CC)CC2)c(Cl)c1
7300 nm/s | CCCCCCS(=O)(=O)c1cc(Cl)c(C(=O)CCN2CCN(S(=O)(=O)CC)CC2)cc1Cl
1700 nm/s | CCCCCCSc1ccc(C(=O)CCN2CCOCC2)c(Cl)c1Cl
3500 nm/s | CCCCCCSc1cc(Cl)c(C(=O)CCN(C)C)c(Cl)c1
1400 nm/s | CCCCCCSc1ccc(C(=O)CCN(C)C)c(Cl)c1Cl
5600 nm/s | CCCCCC(=O)Nc1ccc(C(=O)CCN(C)C)cc1
2 nm/s | CCCCCCOc1ccc(C(=O)CCNc2ccccc2)cc1
7000 nm/s | CCCCCCOc1ccc2c(c1)OCC(CN(C)C)C2=O (configuration not stated)
1700 nm/s | CCCCCCS(=O)(=O)c1cc(Cl)c(C(=O)CCN(C)C)c(Cl)c1
7600 nm/s | CCCCCCS(=O)(=O)c1ccc(C(=O)CCN2CCOCC2)c(Cl)c1
7500 nm/s | CCCCCCOc1ccc(C(=O)CCN(C)C)c(C)c1
3600 nm/s | CCCCCCS(=O)(=O)c1ccc(C(=O)CCN2CCN(C(C)=O)CC2)c(Cl)c1
9300 nm/s | CCCCCCOc1ccc(C(=O)CCN(C)C)cc1C(F)(F)F
7300 nm/s | CCCCCCOc1ccc(C(=O)CCN(C)C)cc1S(C)(=O)=O

More lines, now with the values behind:

Compound | Papp
CCCCCCS(=O)(=O)c1cc(Cl)c(C(=O)CCN2CC2C)cc1Cl (configuration not stated) | 2600 nm/s
CCCCCCS(=O)(=O)c1ccc(C(=O)CCN2CCN(C(C)=O)CC2)c(Cl)c1Cl | 7700 nm/s
CCCCCCS(=O)(=O)c1cc(Cl)c(C(=O)CCN2CCN(C(C)=O)CC2)c(Cl)c1 | 4800 nm/s
CCCCCCSc1cc(Cl)c(C(=O)CCN2CCN(S(=O)(=O)CC)CC2)cc1Cl | 200 nm/s
CCCCCCSc1cc(Cl)c(C(=O)CCN2CC2C)c(Cl)c1 (configuration not stated) | 1900 nm/s
CCN1CCC(Cc2ccc(C(=O)CCN(C)C)cc2)CC1 | 1400 nm/s
CCCCCCOc1cc(Cl)c(C(=O)CCN2CCN(S(=O)(=O)CC)CC2)c(Cl)c1 | 8600 nm/s
CCCCCCOc1cc(Cl)c(C(=O)CCN2CC2C)c(Cl)c1 (configuration not stated) | > 10 nm/s
CCCCCCS(=O)(=O)c1ccc(C(=O)CCN2CC2C)c(Cl)c1 (configuration not stated) | 1600 nm/s
CCCCCCSc1cc(C)c(C(=O)CCN2CC2C)c(C)c1 (configuration not stated) | 7700 nm/s
CCCCCCOc1ccc(C(=O)CCN(C)C)cc1Cc1ccccc1 | 2300 nm/s
CCCCCCS(=O)(=O)c1ccc(C(=O)CCN2CC2C)c(Cl)c1Cl (configuration not stated) | 4400 nm/s
CCCCCCSc1ccc(C(=O)CCN2CC2C)c(Cl)c1 (configuration not stated) | 5000 nm/s
CCCCCCS(=O)(=O)c1cc(Cl)c(C(=O)CCN2CC2C)c(Cl)c1 (configuration not stated) | 9800 nm/s
CCCCCCOc1ccc(C(=O)CCN2CC2C)c(Cl)c1 (configuration not stated) | 8700 nm/s
CCCCCCSc1ccc(C(=O)CCN2CCN(S(=O)(=O)CC)CC2)c(Cl)c1Cl | 300 nm/s
CCCCCCSc1cc(C)c(C(=O)CCN2CCN(S(=O)(=O)CC)CC2)c(C)c1 | 1600 nm/s
CCCCCCOc1ccc(C(=O)CCN2CC2C)c(Cl)c1Cl (configuration not stated) | 3700 nm/s
CCCCCCOc1ccc(C(=O)CCN(C)C)c(I)c1 | 2700 nm/s

Compound | Papp
CCCCCCS(=O)(=O)c1cc(C)c(C(=O)CCN2CCNC(=O)C2)c(C)c1 | 4800 nm/s
CCCCCCOc1ccc(C(=O)CCN(C)C)c(Br)c1 | 800 nm/s
CCCCCCS(=O)(=O)c1ccc(C(=O)CCN(C)C)cc1 | 7800 nm/s
CCCCCCOc1cc(C)c(C(=O)CCN2CC2C)c(C)c1 (configuration not stated) | 9300 nm/s
CCCCCCSc1cc(Cl)c(C(=O)CCN2CC2C)cc1Cl (configuration not stated) | 1400 nm/s
CCCCCCOc1ccc(C(=O)C(CN(C)C)c2ccccc2)cc1 (configuration not stated) | 9100 nm/s
CCCCCCOc1ccc(C(=O)CCN2CCOCC2)c(Cl)c1Cl | 9300 nm/s
CCCCCCOc1ccc(C(=O)CCN(C)C)c(S(C)(=O)=O)c1 | 8500 nm/s
CCCCCCOc1ccc(C(=O)CCN(C)C)cc1I | 5400 nm/s
CCCCCCOc1ccc(C(=O)CCN(C)C)cc1Br | 4600 nm/s
CCCCCCOc1ccc2c(c1)CC(CN(C)C)C2=O (configuration not stated) | 2300 nm/s
CCCCCCOc1ccc(C(=O)CCN(C)C)cc1C(C)(C)C | 1900 nm/s
CCCCCCOc1cc(Cl)c(C(=O)CCN2CC2C)cc1Cl (configuration not stated) | 8100 nm/s
CCCCCCOc1ccc(C(=O)CCN(C)C)c(N(C)C)c1 | 1700 nm/s
CCCCCCOc1ccc(C(=O)CCN(C)C)cc1OC | 9500 nm/s
CCCCCCOc1ccc(C(=O)CCNc2cccc(Cl)c2)cc1 | 20 nm/s
CCCCCCSc1ccc(C(=O)CCN2CC2C)c(Cl)c1Cl (configuration not stated) | 700 nm/s
CCCCCCSc1ccc(C(=O)CCN(C)C)c(Cl)c1 | 6100 nm/s

From ChEMBL document CHEMBL1151935, “Improvement of pharmacological properties of irreversible thyroid receptor coactivator binding inhibitors” (J Med Chem, 2009)
